Where two headings read alike, the source gives them in different places.
Assays:
Type in all cases: cell-based
[1] = test system: HCC2998 colorectal cancer cells; experiment: antitumor activity, sulforhodamine B cell growth assay, HCC2998
Experimental: (§1) The THIQ compound containing a macrocyclic structure of the present invention was administered to various cancer cell lines, and the antitumor activity (Go value) was observed. Specifically, verification was performed according to the literature (Yamori, T.; Matsunaga, A.; Sato, S.; Yamazaki, K.; Komi, A.; Ishizu, K. et al. Cancer Res. 1999, 59, 4042) by the following procedure.
(§2) Cells were plated at an appropriate density in a 96-well plate in RPMI 1640 together with 5% fetal bovine serum, and adhered overnight. The cells were exposed to a drug for 48 hours. Then, according to the sulforhodamine B assay described by Skehan et al (Skehan P., Storeng R., Scudiero D., Monks A., McMahon J., Vistica D., Warren J. T., Bokesch H., Kenney S., Boyd M. R. J Natl. Cancer Inst, 1990, 82, 1107-1112), the cell growth rate was measured. The absorbance of the control well (C) and the test well (T) was measured at 525 nm. In addition, the time at which the drug was added was set as time 0, and the absorbance for the test well (T0) was measured. Using these measured values, the cell growth inhibitory effect (% growth=PG) was calculated by the following formula at each concentration of the drug.
(§3) (T<T0): PG=100×[(T−T0)/T]
(§4) The PG values determined above for each cell line were plotted against the concentration (logarithm) on a semi-logarithmic graph, and summarized for each visceral cancer. Concentrations at which the dose-response curve of each cell line crossed the horizontal line of PG=50%, 0%, or −50% were calculated. These concentrations were defined as Log GI50, Log TGI, and Log LC50. Actually, using two data points of the drug concentration before and after crossing each horizontal line, the drug concentration (logarithmic value) at the intersection of the straight line connecting the two points and the horizontal line for each PG was calculated.

[2] = test system: HT-29 colorectal cancer cells; experiment: antitumor activity, sulforhodamine B cell growth assay, HT-29
Experimental: as §1, §2, §3, §4

[3] = test system: HCT-116 colorectal cancer cells; experiment: antitumor activity, sulforhodamine B cell growth assay, HCT-116
Experimental: as §1, §2, §3, §4

[4] = test system: SF-539 central nervous system cancer cells; experiment: antitumor activity, sulforhodamine B cell growth assay, SF-539
Experimental: as §1, §2, §3, §4

[5] = test system: NCI-H460 lung cancer cells; experiment: antitumor activity, sulforhodamine B cell growth assay, NCI-H460
Experimental: as §1, §2, §3, §4

SK-OV-3 cancer cells = experiment: antitumor activity, sulforhodamine B cell growth assay, SK-OV-3
Experimental: as §1, §2, §3, §4

[6] = test system: MKN-A gastric cancer cells; experiment: antitumor activity, sulforhodamine B cell growth assay, MKN-A
Experimental: as §1, §2, §3, §4

[7] = test system: NCI-H226 lung cancer cells; experiment: antitumor activity, sulforhodamine B cell growth assay, NCI-H226
Experimental: as §1, §2, §3, §4

[8] = test system: MKN1 gastric cancer cells; experiment: antitumor activity, sulforhodamine B cell growth assay, MKN1
Experimental: as §1, §2, §3, §4

[9] = test system: RXF-631L kidney cancer cells; experiment: antitumor activity, sulforhodamine B cell growth assay, RXF-631L
Experimental: as §1, §2, §3, §4

ACHN kidney cancer cells = experiment: antitumor activity, sulforhodamine B cell growth assay, ACHN
Experimental: as §1, §2, §3, §4

LOX-IMVI melanoma cells = experiment: antitumor activity, sulforhodamine B cell growth assay, LOX-IMVI
Experimental: as §1, §2, §3, §4

[10] = test system: MCF-7 breast cancer cells; experiment: antitumor activity, sulforhodamine B cell growth assay, MCF-7
Experimental: as §1, §2, §3, §4

[11] = test system: SNB-75 central nervous system cancer cells; experiment: antitumor activity, sulforhodamine B cell growth assay, SNB-75
Experimental: as §1, §2, §3, §4

[12] = test system: HBC-5 breast cancer cells; experiment: antitumor activity, sulforhodamine B cell growth assay, HBC-5
Experimental: as §1, §2, §3, §4

[13] = test system: St-4 gastric cancer cells; experiment: antitumor activity, sulforhodamine B cell growth assay, St-4
Experimental: as §1, §2, §3, §4

[14] = test system: SNB-78 central nervous system cancer cells; experiment: antitumor activity, sulforhodamine B cell growth assay, SNB-78
Experimental: as §1, §2, §3, §4

[15] = test system: various cancer cell lines; experiment: Verification of antitumor activity, whole panel of cancer cell lines; details: in words, compared with Cyanosafracin B
Experimental: as §1, §2, §3, §4

[16] = MKN-A, drug exposure 48 hours, read-out: GI50 value: 50% growth inhibitory concentration
[17] = RXF-631L, drug exposure 48 hours, read-out: GI50 value: 50% growth inhibitory concentration
[18] = St-4 (SI-4 in Tables 2-11), drug exposure 48 hours, read-out: GI50 value: 50% growth inhibitory concentration

COc1c(C)cc2c(c1O)[C@@H]1[C@@H]3Cc4c5c(C)c6c(c4C(CNC(=O)[C@H](C)N(C)CC#CCO5)N3[C@@H](C#N)[C@H](C2)N1C)OCO6 [Compound 29]
GI50 ([1]; Homo sapiens, HCC 2998, HCC2998, drug exposure 48 hours, read-out: GI50 value: 50% growth inhibitory concentration): 2.8 nM | GI50 ([2]; Homo sapiens, HT-29, drug exposure 48 hours, read-out: GI50 value: 50% growth inhibitory concentration): 2 nM | GI50 ([3]; Homo sapiens, HCT-116, drug exposure 48 hours, read-out: GI50 value: 50% growth inhibitory concentration): 2.4 nM | GI50 ([4]; Homo sapiens, SF-539, drug exposure 48 hours, read-out: GI50 value: 50% growth inhibitory concentration): 1.3 nM | GI50 ([5]; Homo sapiens, NCI-H460, drug exposure 48 hours, read-out: GI50 value: 50% growth inhibitory concentration): 2.8 nM | GI50 (SK-OV-3 cancer cells; Homo sapiens, SK-OV-3, drug exposure 48 hours, read-out: GI50 value: 50% growth inhibitory concentration): 5.7 nM | GI50 [6, 16]: 3.5 nM | GI50 ([7]; Homo sapiens, NCI-H226, drug exposure 48 hours, read-out: GI50 value: 50% growth inhibitory concentration): 2.5 nM | GI50 ([8]; Homo sapiens, MKN-1, MKN1, drug exposure 48 hours, read-out: GI50 value: 50% growth inhibitory concentration): 2.3 nM | GI50 [9, 17]: 3.1 nM | GI50 (ACHN kidney cancer cells; Homo sapiens, ACHN, drug exposure 48 hours, read-out: GI50 value: 50% growth inhibitory concentration): 2.2 nM | GI50 (LOX-IMVI melanoma cells; Homo sapiens, LOX-IMVI, drug exposure 48 hours, read-out: GI50 value: 50% growth inhibitory concentration): 0.59 nM | GI50 ([10]; Homo sapiens, MCF7, MCF-7, drug exposure 48 hours, read-out: GI50 value: 50% growth inhibitory concentration): 0.67 nM | GI50 ([11]; Homo sapiens, SNB-75, drug exposure 48 hours, read-out: GI50 value: 50% growth inhibitory concentration): 1.3 nM | GI50 ([12]; HBC5, HBC-5, drug exposure 48 hours, read-out: GI50 value: 50% growth inhibitory concentration): 1.8 nM | GI50 [13, 18]: 3.8 nM | GI50 ([14]; Homo sapiens, SNB-78, drug exposure 48 hours, read-out: GI50 value: 50% growth inhibitory concentration): 3.1 nM

C=C1/C=C/CN[C@@H](C)C(=O)NCC2c3c(c(c(C)c4c3OCO4)OC1)C[C@H]1[C@H]3c4c(cc(C)c(OC)c4O)C[C@@H]([C@H](C#N)N21)N3C [Compound 33]
GI50 ([1]; HCC2998, drug exposure 48 hours, read-out: GI50 value: 50% growth inhibitory concentration): 140 nM | GI50 ([2]; HT-29, drug exposure 48 hours, read-out: GI50 value: 50% growth inhibitory concentration): 86 nM | GI50 ([3]; HCT-116, drug exposure 48 hours, read-out: GI50 value: 50% growth inhibitory concentration): 87 nM | GI50 ([4]; SF-539, drug exposure 48 hours, read-out: GI50 value: 50% growth inhibitory concentration): 46 nM | GI50 ([5]; NCI-H460, drug exposure 48 hours, read-out: GI50 value: 50% growth inhibitory concentration): 260 nM | GI50 (SK-OV-3 cancer cells; SK-OV-3, drug exposure 48 hours, read-out: GI50 value: 50% growth inhibitory concentration): 500 nM | GI50 [6, 16]: 330 nM | GI50 ([7]; NCI-H226, drug exposure 48 hours, read-out: GI50 value: 50% growth inhibitory concentration): 260 nM | GI50 ([8]; MKN1, drug exposure 48 hours, read-out: GI50 value: 50% growth inhibitory concentration): 68 nM | GI50 [9, 17]: 300 nM | GI50 (ACHN kidney cancer cells; ACHN, drug exposure 48 hours, read-out: GI50 value: 50% growth inhibitory concentration): 260 nM | GI50 (LOX-IMVI melanoma cells; LOX-IMVI, drug exposure 48 hours, read-out: GI50 value: 50% growth inhibitory concentration): 31 nM | GI50 ([10]; MCF-7, drug exposure 48 hours, read-out: GI50 value: 50% growth inhibitory concentration): 26 nM | GI50 ([11]; SNB-75, drug exposure 48 hours, read-out: GI50 value: 50% growth inhibitory concentration): 96 nM | GI50 ([12]; HBC-5, drug exposure 48 hours, read-out: GI50 value: 50% growth inhibitory concentration): 40 nM | antitumor activity [15]: better antitumor activity than Cyanosafracin B | GI50 [13, 18]: 270 nM | GI50 ([14]; SNB-78, drug exposure 48 hours, read-out: GI50 value: 50% growth inhibitory concentration): 83 nM

C#CCN1C(=O)[C@H]2[C@@H]3C=C(COc4c(C)c5c(c6c4C[C@H]4[C@H]7c8c(cc(C)c(OC)c8O)C[C@@H]([C@H](C#N)N4C6CNC(=O)[C@H](C)NC(=O)OC3)N7C)OCO5)C[C@H]2C1=O [Compound 47]
GI50 ([1]; Homo sapiens, HCC 2998, HCC2998 colorectal cancer cells, read-out: antitumor activity GI50 value: 50% growth inhibitory concentration): 410 nM | GI50 ([2]; Homo sapiens, HT-29 colorectal cancer cells, read-out: antitumor activity GI50 value: 50% growth inhibitory concentration): 490 nM | GI50 ([3]; Homo sapiens, HCT-116 colorectal cancer cells, read-out: antitumor activity GI50 value: 50% growth inhibitory concentration): 450 nM | GI50 ([4]; Homo sapiens, SF-539 central nervous system cancer cells, read-out: antitumor activity GI50 value: 50% growth inhibitory concentration): 290 nM | GI50 ([5]; Homo sapiens, NCI-H460, NCl--H460 lung cancer cells, read-out: antitumor activity GI50 value: 50% growth inhibitory concentration): 630 nM | GI50 (SK-OV-3 cancer cells; Homo sapiens, SK-OV-3 cervical cancer cells, read-out: antitumor activity GI50 value: 50% growth inhibitory concentration): 3900 nM | GI50 ([6]; MKN-A gastric cancer cells, read-out: antitumor activity GI50 value: 50% growth inhibitory concentration): 1400 nM | GI50 ([7]; Homo sapiens, NCI-H226, NCl-H226 lung cancer cells, read-out: antitumor activity GI50 value: 50% growth inhibitory concentration): 2300 nM | GI50 ([8]; Homo sapiens, MKN-1, MKN1 gastric cancer cells, read-out: antitumor activity GI50 value: 50% growth inhibitory concentration): 290 nM | GI50 ([9]; RXF-631L kidney cancer cells, read-out: antitumor activity GI50 value: 50% growth inhibitory concentration): 2100 nM | GI50 (ACHN kidney cancer cells; Homo sapiens, ACHN kidney cancer cells, read-out: antitumor activity GI50 value: 50% growth inhibitory concentration): 2600 nM | GI50 (LOX-IMVI melanoma cells; Homo sapiens, LOX-IMVI melanoma cells, read-out: antitumor activity GI50 value: 50% growth inhibitory concentration): 160 nM | GI50 ([10]; Homo sapiens, MCF7, MCF-7 breast cancer cells, read-out: antitumor activity GI50 value: 50% growth inhibitory concentration): 63 nM | GI50 ([11]; Homo sapiens, SNB-75 central nervous system cancer cells, read-out: antitumor activity GI50 value: 50% growth inhibitory concentration): 330 nM | GI50 ([12]; HBC5, HBC-5 breast cancer cells, read-out: antitumor activity GI50 value: 50% growth inhibitory concentration): 300 nM | antitumor activity [15]: better antitumor activity than Cyanosafracin B | GI50 ([13]; SI-4 gastric cancer cells, read-out: antitumor activity GI50 value: 50% growth inhibitory concentration): 2200 nM | GI50 ([14]; Homo sapiens, SNB-78 central nervous system cancer cells, read-out: antitumor activity GI50 value: 50% growth inhibitory concentration): 260 nM
